Patent publication US20240307327A1, “DOSAGE FORMS OF MIRDAMETINIB” (SpringWorks Therapeutics, Inc., priority 2023, published 2024)

Experiment: Particle size distribution of mirdametinib drug substance lots (laser diffraction)
Format: physicochemical
Conditions: mirdametinib free base
Excerpt: As used herein, “D50” or “d50”, also known as the median diameter, corresponds to the value under which 50% of the particles has a lower volume diameter. “D90” or “d90” corresponds to the value under which 90% of the particles has a lower volume diameter. The particle size may be measured using wet standard laser diffraction particle sizing techniques known in the art. One example of an instrument to measure the particle size of the dry powders is the Mastersizer 3000, manufactured by Malvern Panalytical Ltd. (Malvern, UK). As particles are often non-spherical, it is difficult and complex to provide dimensional descriptions of these non-spherical particles. As used herein, “volume diameter” refers to diameter of a sphere with equal volume of the non-spherical particle.
Mirdametinib free base (Lots #1, 2, and 3) having the properties in the table below were prepared.

D10 [μm] | Structure (SMILES)
4.9 | O=C(NOC[C@H](O)CO)c1ccc(F)c(F)c1Nc1ccc(I)cc1F [Lot 1, N-((R)-2,3-dihydroxypropoxy)-3,4-difluoro-2-(2-fluoro-4-iodo-phenylamino)benzamide]
7.6 | O=C(NOC[C@H](O)CO)c1ccc(F)c(F)c1Nc1ccc(I)cc1F [Lot 2, N-((R)-2,3-dihydroxypropoxy)-3,4-difluoro-2-(2-fluoro-4-iodo-phenylamino)benzamide]
